From EP2698385A1, “Detection of synthetic cannabinoids” (priority 2012, dated 2014)
Like-named read-outs stand apart in the source and are kept apart here.

Legend:
Assay type in all cases: binding, sheep
Antibody to Immunogen II = assay: Competitive ELISA (Example 36), antibody RS1833B12, tracer ESC4555/LK959, standard JWH-018; settings: Cross-reactants at 100 ng/ml; Antibody to Immunogen II
Experimental: An aqueous solution of each immunogen was formulated with Freund's Complete Adjuvant (FCA) to form an emulsion consisting of 2mg/ml* immunogen in 50% (v/v) FCA. Three sheep were immunised with this emulsion (1° immunisation), 0.25ml being intramuscularly injected at each of four sites in the flank of each animal. Subsequent immunizations (boosts) contained 1mg/ml* immunogen. All boosts were emulsified in 50% (v/v) Freund's Incomplete Adjuvant (FIA) and were administered in the same manner as the 1° immunisation, at monthly intervals. Blood sampling took place 7 to 14 days after each boost. *The general procedure for immunogen administration is outlined above, however, it was necessary to deviate from this protocol in some cases, due to reduced immunogen concentrations (Immunogens II, IV, VII and VIII) and/or amount available (Immunogen VIII). Any deviations from the protocol described are outlined in Table 1A below and highlighted in bold. Table 1A: Amount and volume of immunogens administered for primary and subsequent boosts
The appropriate antibody coating dilution was determined using standard ELISA checkerboard techniques. The plate was incubated overnight at 4°C, washed 4 times over 10 minutes with Tris buffered saline containing Tween 20 (TBST) and tapped dry. […] 75µl of conjugate (appropriate hapten-HRP) diluted in Tris buffer (pH 7.2) containing EDTA, D-mannitol, sucrose, thimerosal and BSA, was added to each of the wells. The appropriate dilution of conjugate was also determined using standard ELISA checkerboard techniques. The plate was incubated at 25°C for 1 hour. Excess unbound conjugate was removed by washing 6 times over a 10 minute period with TBST. 125µl of tetramethylbenzidine (TMB) substrate solution was added to each well of the plate that was then incubated for 20 minutes in the dark at room temperature. The reaction was terminated by addition of 125µl 0.2M H2SO4 to each well. The absorbance was then measured at 450nm using a microtiter plate reader. The data are inputted to a computer program called 'KC Junior'. It is a 4 parameter fit curve and allow the calculatation of concentrations between the standard runs.
In a similar manner to that described above, the wells of a 96-well microtiter plate were coated with the IgG fraction of the antiserum raised to Immunogens I or II.
The data set our in Tables 3 and 4 are generated using antibodies raised against the indicated Immunogens in a competitive binding assay with the indicated tracers, using the indicated standards: Table 2
Using the calibration curves generated and employing a single level of cross reactants, these were used to determine the cross-reactivity of each immunoassay with these substances. These are the standards used for the IC50 and cross-reactivity data generation • Immunogen I - JWH-018 • Immunogen II - JWH-018 • Immunogen IV - JWH-018 • Immunogen VII - JWH-015 • Immunogen VIII - JWH-018 Table 4: Cross reactivity of the competitive ELISAs for synthetic cannabinoids and their metabolites

Antibody to Immunogen IV = settings: Cross-reactants at 100 ng/ml; Antibody to Immunogen IV
[1] = system: Antibody to Immunogen VII
[2] = system: Antibody to Immunogen VIII; settings: Cross-reactants at 100 ng/ml; Antibody to Immunogen VIII
Antibody to Immunogen I = settings: Cross-reactants at 100 ng/ml; Antibody to Immunogen I
Outline: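 Sheep anti-Immunogen I IgG coated on plates, then JWH-018 standards (0–40 ng/ml) competed with hapten-HRP conjugate for 1 h at 25°C. TMB read-out at 450 nm, 4-parameter fit. IC50 is the standard concentration giving 50% B/B0; cross-reactivity of related cannabinoids taken from the calibration curves.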

[3] = Cross-reactants at 100 ng/ml, Antibody to Immunogen VII

SMILES: CCC(C)Cn1cc(C(=O)c2cccc3ccccc23)c2ccccc21 (single isomer, unassigned) [JWH-018 N-(2-methylbutyl) isomer (JWH-073 2-methylbutyl homologue), JWH-018 N-(2-methylbutyl) isomer]
- %B/B0 (Antibody to Immunogen II): 28.60%
- %B/B0 (Antibody to Immunogen IV): 29.88%
- %B/B0 [1, 3]: 58.84%
- %B/B0 [2]: 85.16%
- %B/B0 (Antibody to Immunogen I): 3.61%

SMILES: O=C(c1ccccc1I)c1cn(CCCCCF)c2ccccc12 [AM-694]
- %B/B0 (Antibody to Immunogen II): 36.18%
- %B/B0 (Antibody to Immunogen IV): 11.30%
- %B/B0 [1, 3]: 75.66%
- %B/B0 [2]: 11.92%
- %B/B0 (Antibody to Immunogen I): 12.17%

SMILES: CCCC(C)n1cc(C(=O)c2cccc3ccccc23)c2ccccc21 (single isomer, unassigned) [JWH-018 N-(1-methylbutyl) isomer]
- %B/B0 (Antibody to Immunogen II): 51.92%
- %B/B0 (Antibody to Immunogen IV): 73.49%
- %B/B0 [1, 3]: 67.71%
- %B/B0 [2]: 63.22%
- %B/B0 (Antibody to Immunogen I): 12.42%

SMILES: CCCCCn1cc(C(=O)c2ccc(C)c3ccccc23)c2ccccc21 [JWH-122]
- %B/B0 (Antibody to Immunogen II): 44.55%
- %B/B0 (Antibody to Immunogen IV): 3.94%
- %B/B0 [1, 3]: 89.37%
- %B/B0 [2]: 14.43%
- %B/B0 (Antibody to Immunogen I): 62.98%

SMILES: Cc1ccc(C(=O)c2cn(CCCCCO)c3ccccc23)c2ccccc12 [JWH-122 N-(5-hydroxypentyl) metabolite]
- %B/B0 (Antibody to Immunogen II): 71.76%
- %B/B0 (Antibody to Immunogen IV): 25.72%
- %B/B0 [1, 3]: 83.65%
- %B/B0 [2]: 48.67%
- %B/B0 (Antibody to Immunogen I): 42.80%

SMILES: CC(O)CCCn1cc(C(=O)c2cccc3ccccc23)c2ccccc21 (racemic) [(±)-JWH 018 N-(4-hydroxypentyl) metabolite]
- %B/B0 (Antibody to Immunogen II): 53.99%
- %B/B0 (Antibody to Immunogen IV): 52.29%
- %B/B0 [1, 3]: 57.37%
- %B/B0 [2]: 21.94%
- %B/B0 (Antibody to Immunogen I): 4.23%

SMILES: CCCCCn1c(C)c(C(=O)c2cccc3ccccc23)c2ccccc21 [JWH-007]
- %B/B0 (Antibody to Immunogen II): 66.06%
- %B/B0 (Antibody to Immunogen IV): 60.63%
- %B/B0 [1, 3]: 27.77%
- %B/B0 [2]: 61.76%
- %B/B0 (Antibody to Immunogen I): 32.96%

SMILES: CCCCCn1cc(C(=O)c2ccccc2OC)c2ccccc21 [RCS-4 2-methoxy isomer]
- %B/B0 (Antibody to Immunogen II): 42.74%
- %B/B0 (Antibody to Immunogen IV): 15.28%
- %B/B0 [1, 3]: 87.27%
- %B/B0 [2]: 29.32%
- %B/B0 (Antibody to Immunogen I): 29.14%

SMILES: O=C(c1cccc2ccccc12)c1cn(CCN2CCOCC2)c2cccc(O)c12 [JWH-200 4-hydroxyindole metabolite]
- %B/B0 (Antibody to Immunogen II): 78.17%
- %B/B0 (Antibody to Immunogen IV): 87.88%
- %B/B0 [1, 3]: 91.15%
- %B/B0 [2]: 91.82%
- %B/B0 (Antibody to Immunogen I): 44.97%

SMILES: O=C(c1cccc2ccccc12)c1cn(CCCC(O)CF)c2ccccc12 (stereo not drawn) [AM-2201 N-(4-hydroxypentyl) metabolite]
- %B/B0 (Antibody to Immunogen II): 46.55%
- %B/B0 (Antibody to Immunogen IV): 43.62%
- %B/B0 [1, 3]: 52.75%
- %B/B0 [2]: 36.41%
- %B/B0 (Antibody to Immunogen I): 3.80%

SMILES: O=C(c1cccc2ccccc12)c1cn(CCCCCF)c2ccccc12 [AM-2201]
- %B/B0 (Antibody to Immunogen II): 11.72%
- %B/B0 (Antibody to Immunogen IV): 6.20%
- %B/B0 [1, 3]: 55.28%
- %B/B0 [2]: 16.74%
- %B/B0 (Antibody to Immunogen I): 3.72%

SMILES: CCCCn1cc(C(=O)c2cccc3ccccc23)c2cccc(O)c21 [JWH-073 7-hydroxyindole metabolite]
- %B/B0 (Antibody to Immunogen II): 46.05%
- %B/B0 (Antibody to Immunogen IV): 96.95%
- %B/B0 [1, 3]: 61.78%
- %B/B0 [2]: 94.04%
- %B/B0 (Antibody to Immunogen I): 5.59%

SMILES: O=C(c1cccc2ccccc12)c1cn(CCCCO)c2ccccc12 [JWH-073 N-(4-hydroxybutyl) metabolite]
- %B/B0 (Antibody to Immunogen II): 60.01%
- %B/B0 (Antibody to Immunogen IV): 52.61%
- %B/B0 [1, 3]: 48.81%
- %B/B0 [2]: 57.99%
- %B/B0 (Antibody to Immunogen I): 3.22%

SMILES: CCCCCn1cc(C(=O)c2cccc3ccccc23)c2cccc(O)c21 [JWH-018 7-hydroxyindole metabolite]
- %B/B0 (Antibody to Immunogen II): 34.79%
- %B/B0 (Antibody to Immunogen IV): 93.31%
- %B/B0 [1, 3]: 68.53%
- %B/B0 [2]: 94.46%
- %B/B0 (Antibody to Immunogen I): 6.72%

SMILES: CCCCCCCn1cc(C(=O)c2cccc3ccccc23)c2ccccc21 [JWH-020]
- %B/B0 (Antibody to Immunogen II): 35.75%
- %B/B0 (Antibody to Immunogen IV): 73.73%
- %B/B0 [1, 3]: 81.30%
- %B/B0 [2]: 100.73%
- %B/B0 (Antibody to Immunogen I): 16.03%

SMILES: CCCn1c(C)c(C(=O)c2cccc3ccccc23)c2ccccc21 [JWH-015]
- %B/B0 (Antibody to Immunogen II): 65.67%
- %B/B0 (Antibody to Immunogen IV): 93.20%
- %B/B0 [1, 3]: 17.84%
- %B/B0 ([1]; JWH-015 standard 1.25 ng/ml): 75%
- %B/B0 ([1]; JWH-015 standard 2.5 ng/ml): 62%
- %B/B0 ([1]; JWH-015 standard 5 ng/ml): 54%
- %B/B0 ([1]; JWH-015 standard 10 ng/ml): 43%
- %B/B0 ([1]; JWH-015 standard 20 ng/ml): 34%
- %B/B0 ([1]; JWH-015 standard 40 ng/ml): 26%
- %B/B0 ([1]; JWH-015 standard 80 ng/ml): 20%
- IC50 ([1]; Table 3c standard curve, standard concentration which produces 50% B/B0): 5.910 ng/mL
- %B/B0 [2]: 92.27%
- %B/B0 (Antibody to Immunogen I): 14.67%

SMILES: CCCCCn1cc(C(=O)c2c(C)ccc3ccccc23)c2ccccc21 [JWH 122 2-methylnaphthyl isomer]
- %B/B0 (Antibody to Immunogen II): 27.14%
- %B/B0 (Antibody to Immunogen IV): 26.13%
- %B/B0 [1, 3]: 85.37%
- %B/B0 [2]: 61.74%
- %B/B0 (Antibody to Immunogen I): 33.35%

SMILES: CCCCCn1cc(C(=O)c2cccc3ccc(C)cc23)c2ccccc21 [JWH 122 7-methylnaphthyl isomer]
- %B/B0 (Antibody to Immunogen II): 38.28%
- %B/B0 (Antibody to Immunogen IV): 13.48%
- %B/B0 [1, 3]: 92.44%
- %B/B0 [2]: 38.48%
- %B/B0 (Antibody to Immunogen I): 36.46%

SMILES: CN1CCCCC1Cn1cc(C(=O)c2cccc3ccccc23)c2ccccc21 (stereo not drawn) [AM-1220]
- %B/B0 (Antibody to Immunogen II): 77.46%
- %B/B0 (Antibody to Immunogen IV): 86.93%
- %B/B0 [1, 3]: 49.71%
- %B/B0 [2]: 106.65%
- %B/B0 (Antibody to Immunogen I): 4.45%

SMILES: CC(O)CCn1cc(C(=O)c2cccc3ccccc23)c2ccccc21 (stereo not drawn) [JWH-073 N-(3-hydroxybutyl) metabolite]
- %B/B0 (Antibody to Immunogen II): 54.52%
- %B/B0 (Antibody to Immunogen IV): 53.52%
- %B/B0 [1, 3]: 43.39%
- %B/B0 [2]: 94.04%
- %B/B0 (Antibody to Immunogen I): 3.10%
